According to ChEMBL document CHEMBL3407492, “BMS-871: a novel orally active pan-Notch inhibitor as an anticancer agent” (Bioorg Med Chem Lett, 2015):

Experiments:
[1] = system: TALL-1; assay: Anticancer activity against human TALL-1 cells assessed as cell number by coulter channelyzer; type: functional, cell-based
[2] = Metabolic stability in human liver microsomes assessed as fraction of 0.5 uM parent compound remaining after 10 mins; type: ADME; details: read-out: Stability
[3] = Metabolic stability in mouse liver microsomes assessed as fraction of 0.5 uM parent compound remaining after 10 mins; type: ADME; details: read-out: Stability
[4] = system: TALL-1; assay: In vivo antitumor activity against human TALL-1 cells xenograft model assessed as tumor growth inhibition at 6 mg/kg, po qd for 10 days on - 2 days off - 5 days on; type: functional; details: read-out: TGI
[5] = system: TALL-1; assay: In vivo antitumor activity against human TALL-1 cells xenograft model assessed as tumor growth inhibition at 24 mg/kg, po qd for 10 days on - 2 days off - 5 days on; type: functional; details: read-out: TGI
[6] = system: MDA-MB-157; assay: In vivo antitumor activity against human MDA-MB-157 cells xenograft model assessed as tumor growth inhibition at 7.5 mg/kg, po qd for 10 days on - 2 days off - 5 days on; type: functional; details: read-out: TGI
[7] = system: MDA-MB-157; assay: In vivo antitumor activity against human MDA-MB-157 cells xenograft model assessed as tumor growth inhibition at 15 mg/kg, po qd for 10 days on - 2 days off - 5 days on; type: functional; details: read-out: TGI
[8] = system: MDA-MB-157; assay: In vivo antitumor activity against human MDA-MB-157 cells xenograft model assessed as tumor growth inhibition at 30 mg/kg, po qd for 10 days on - 2 days off - 5 days on; type: functional; details: read-out: TGI
[9] = system: TALL-1; assay: In vivo antitumor activity against human TALL-1 cells xenograft model assessed as tumor growth inhibition treated po qd for 10 days on - 2 days off - 5 days on; type: functional, organism-based

CCC(CC)[C@H](C(N)=O)[C@@H](CC(C)C)C(=O)N[C@H]1N=C(c2ccccc2)c2ccccc2N(C)C1=O
IC50 [1]: 3 nM
remaining at 10 min, 0.5 µM [2]: 2%
remaining at 10 min, 0.5 µM [3]: 2%

CCC(CC)[C@H](C(N)=O)[C@@H](CCC(F)(F)F)C(=O)N[C@H]1N=C(c2ccccc2)c2ccccc2N(C)C1=O
remaining at 10 min, 0.5 µM [2]: 5%
remaining at 10 min, 0.5 µM [3]: 7%

CN1C(=O)[C@@H](NC(=O)[C@H](CCC(F)(F)F)[C@@H](C(N)=O)c2cccc(OC(F)(F)F)c2)N=C(c2ccccc2)c2ccccc21
IC50 [1]: 26 nM
remaining at 10 min, 0.5 µM [2]: 100%
remaining at 10 min, 0.5 µM [3]: 82%

CCC(CC)[C@H](C(N)=O)[C@@H](CC(C)(C)C)C(=O)N[C@H]1N=C(c2ccccc2)c2ccccc2N(C)C1=O
remaining at 10 min, 0.5 µM [2]: 1%
remaining at 10 min, 0.5 µM [3]: 6%

Cc1nocc1[C@H](C(N)=O)[C@@H](CCC(F)(F)F)C(=O)N[C@H]1N=C(c2ccccc2)c2ccccc2N(C)C1=O
remaining at 10 min, 0.5 µM [2]: 78%
remaining at 10 min, 0.5 µM [3]: 23%

CN1C(=O)[C@@H](NC(=O)[C@H](CCC(F)(F)F)[C@@H](C(N)=O)c2cc(F)cc(F)c2)N=C(c2ccccc2)c2ccccc21
IC50 [1]: 4 nM
remaining at 10 min, 0.5 µM [2]: 94%
remaining at 10 min, 0.5 µM [3]: 21%

CCC[C@H](C(N)=O)[C@@H](CC(F)(F)F)C(=O)N[C@H]1N=C(c2ccccc2)c2ccccc2N(C)C1=O
IC50 [1]: 158 nM
remaining at 10 min, 0.5 µM [2]: 45%
remaining at 10 min, 0.5 µM [3]: 51%

CN1C(=O)[C@@H](NC(=O)[C@H](CCC(F)(F)F)[C@@H](C(N)=O)c2cccc(C(F)(F)F)c2)N=C(c2ccccc2)c2ccccc21
IC50 [1]: 13 nM
remaining at 10 min, 0.5 µM [2]: 92%
remaining at 10 min, 0.5 µM [3]: 59%

NC(=O)[C@@H](c1ncon1)[C@@H](CCC(F)(F)F)C(=O)N[C@H]1N=C(c2ccccc2)c2ccccc2NC1=O
remaining at 10 min, 0.5 µM [2]: 84%
remaining at 10 min, 0.5 µM [3]: 83%

COc1ccc([C@H](C(N)=O)[C@@H](CCC(F)(F)F)C(=O)N[C@H]2N=C(c3ccccc3)c3ccccc3N(C)C2=O)cc1
IC50 [1]: 4 nM
remaining at 10 min, 0.5 µM [2]: 62%
remaining at 10 min, 0.5 µM [3]: 5%

CN1C(=O)[C@@H](NC(=O)[C@H](CCC(F)(F)F)[C@@H](C(N)=O)c2ccccc2)N=C(c2ccccc2)c2ccccc21
IC50 [1]: 4 nM
remaining at 10 min, 0.5 µM [2]: 95%
remaining at 10 min, 0.5 µM [3]: 74%
inhibition in vivo at 6 mg/kg [4]: 71%
inhibition in vivo at 24 mg/kg [5]: 102%
inhibition in vivo at 7.5 mg/kg [6]: 63%
inhibition in vivo at 15 mg/kg [7]: 76%
inhibition in vivo at 30 mg/kg [8]: 99%
inhibition [9]: Dose-dependent effect

Cc1cccc([C@H](C(N)=O)[C@@H](CCC(F)(F)F)C(=O)N[C@H]2N=C(c3ccccc3)c3ccccc3N(C)C2=O)c1
IC50 [1]: 15 nM
remaining at 10 min, 0.5 µM [2]: 23%
remaining at 10 min, 0.5 µM [3]: 7%

Cc1nc([C@H](C(N)=O)[C@@H](CCC(F)(F)F)C(=O)N[C@H]2N=C(c3ccccc3)c3ccccc3N(C)C2=O)no1
remaining at 10 min, 0.5 µM [2]: 100%
remaining at 10 min, 0.5 µM [3]: 24%

CN1C(=O)[C@@H](NC(=O)[C@H](CCC(F)(F)F)[C@@H](C(N)=O)c2ccc(F)cc2F)N=C(c2ccccc2)c2ccccc21
IC50 [1]: 4 nM
remaining at 10 min, 0.5 µM [2]: 100%
remaining at 10 min, 0.5 µM [3]: 31%

CN1C(=O)[C@@H](NC(=O)[C@H](CCC(F)(F)F)[C@@H](C(N)=O)c2ccc(F)cc2)N=C(c2ccccc2)c2ccccc21
IC50 [1]: 5 nM
remaining at 10 min, 0.5 µM [2]: 95%
remaining at 10 min, 0.5 µM [3]: 65%

NC(=O)[C@@H](c1cocn1)[C@@H](CCC(F)(F)F)C(=O)N[C@H]1N=C(c2ccccc2)c2ccccc2NC1=O
remaining at 10 min, 0.5 µM [2]: 86%
remaining at 10 min, 0.5 µM [3]: 99%

Cc1cc([C@H](C(N)=O)[C@@H](CCC(F)(F)F)C(=O)N[C@H]2N=C(c3ccccc3)c3ccccc3N(C)C2=O)no1
remaining at 10 min, 0.5 µM [2]: 94%
remaining at 10 min, 0.5 µM [3]: 10%

CN1C(=O)[C@@H](NC(=O)[C@H](CCC(F)(F)F)[C@@H](C(N)=O)c2cccc(S(C)(=O)=O)c2)N=C(c2ccccc2)c2ccccc21
remaining at 10 min, 0.5 µM [2]: 93%
remaining at 10 min, 0.5 µM [3]: 62%

NC(=O)[C@@H](c1cnoc1)[C@@H](CCC(F)(F)F)C(=O)N[C@H]1N=C(c2ccccc2)c2ccccc2NC1=O
remaining at 10 min, 0.5 µM [2]: 96%
remaining at 10 min, 0.5 µM [3]: 100%

CN1C(=O)[C@@H](NC(=O)[C@H](CCC(F)(F)F)[C@@H](C(N)=O)c2ccc(F)c(F)c2)N=C(c2ccccc2)c2ccccc21
IC50 [1]: 4 nM
remaining at 10 min, 0.5 µM [2]: 94%
remaining at 10 min, 0.5 µM [3]: 29%
